US6299865A, “Reduction of hair growth” (priority 2000, dated 2001)

Tests used:
[1] = system: tissue nonspecific form of alkaline phosphatase; conditions: several species; cited from earlier work
Human hair follicles = assay: Human hair follicle growth assay; assay type: cell-based; conditions: 0.1 mM, control 0.77 ± .09
Protocol: Human hair follicles in growth phase (anagen) were isolated from face-lift tissue under a dissecting scope using a scalpel and watchmakers forceps. The skin was sliced into thin strips exposing 2-3 rows of follicles that could readily be dissected. Follicles were placed into 0.5 mL Williams E medium (Life Technologies, Gaithersburg, Md.) supplemented with […] L-glutamine, 10 μg/mL insulin, 10 ng/mL hydrocortisone, 100 units penicillin, 0.1 mg/mL streptomycin and 0.25 μg/mL amphotericin B. The follicles were incubated in 24 well plates (1 follicle/well) at 37° C. in an atmosphere of 5% CO2 and 95% air. Hair follicles were video recorded in the 24-well plates under the dissecting scope under a power of 20×. Typically, initial recordings were made on day 0 (day follicles were placed in culture) or day 1, and again on days 7 or 8. Hair follicle lengths were assessed using an image analysis software system (Computer Eyes and NIH Image).

[2] = system: tissue-specific form of alkaline phosphatase; conditions: stereoselective: only the L-form is active; uncompetitive; cited from earlier work

| SMILES | Inhibition of tissue-specific form of alkaline phosphatase [2] | other results |
| --- | --- | --- |
| N=C(N)NCCCC[C@H](N)C(=O)O [L-homoarginine] | – | Inhibition of tissue nonspecific form of alkaline phosphatase [1]: acts as an inhibitor |
| [Na+].[Na+].[Na+].[O]=[V]([O-])([O-])[O-] [Sodium Orthovanadate, sodium orthovanadate] | – | Hair Follicle Length Increase (Day 6-Day 0) (Human hair follicles): 0.32 ± .06 mm |
| CC(C)C[C@H](N)C(=O)O [leucine] | inhibit | – |
| N[C@@H](Cc1ccccc1)C(=O)O [phenylalanine] | inhibit | – |
| N[C@@H](Cc1c[nH]c2ccccc12)C(=O)O [tryptophan] | inhibit | – |
